Molecular target: T1, STAT6 (endogenous, HiBiT-tagged) in HeLa LgBiT clone 4.14 cells (Homo sapiens, UniProt P42226)
T1 construct: These cells express endogenous STAT6; host or cells: HeLa LgBiT clone 4.14
T1 sequence (P42226 1-847): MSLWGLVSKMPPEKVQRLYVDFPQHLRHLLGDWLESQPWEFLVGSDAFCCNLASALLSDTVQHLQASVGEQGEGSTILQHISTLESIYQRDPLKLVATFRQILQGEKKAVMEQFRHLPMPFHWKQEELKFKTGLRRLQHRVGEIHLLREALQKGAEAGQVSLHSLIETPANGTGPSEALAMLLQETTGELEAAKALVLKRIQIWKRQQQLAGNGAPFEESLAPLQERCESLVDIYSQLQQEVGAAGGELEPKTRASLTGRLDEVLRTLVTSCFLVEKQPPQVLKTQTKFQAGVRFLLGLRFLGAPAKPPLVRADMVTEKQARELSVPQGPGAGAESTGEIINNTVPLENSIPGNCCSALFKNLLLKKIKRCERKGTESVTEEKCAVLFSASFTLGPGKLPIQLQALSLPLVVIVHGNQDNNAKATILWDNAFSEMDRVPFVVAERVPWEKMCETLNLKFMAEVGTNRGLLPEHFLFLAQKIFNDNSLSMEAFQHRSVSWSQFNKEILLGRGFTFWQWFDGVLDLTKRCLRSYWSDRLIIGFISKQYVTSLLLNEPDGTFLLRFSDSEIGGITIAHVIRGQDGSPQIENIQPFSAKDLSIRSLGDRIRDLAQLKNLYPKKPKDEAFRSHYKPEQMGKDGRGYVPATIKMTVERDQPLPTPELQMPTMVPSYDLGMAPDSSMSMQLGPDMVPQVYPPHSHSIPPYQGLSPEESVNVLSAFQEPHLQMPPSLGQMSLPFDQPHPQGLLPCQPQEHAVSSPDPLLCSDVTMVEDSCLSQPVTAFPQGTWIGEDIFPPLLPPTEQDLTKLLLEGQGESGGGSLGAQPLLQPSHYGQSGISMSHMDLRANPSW
Test: STAT6 Degrader Assay (HiBiT based, HeLa LgBiT clone 4.14 cells, luminescence, DC50)
Assay type: cell-based
Settings: DC50 provided for test compounds with >80% Emax, geometric mean, read-out: STAT6 degradation DC50
Outline: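 Remaining STAT6 is read as NanoBiT luminescence after 0.5 h with Nano-Glo, in HeLa LgBiT clone 4.14 cells expressing endogenous HiBiT-tagged STAT6, following 4-24 h compound incubation at 37 °C. Full degradation is set by 50 µM terfenadine, which kills the cells; degradation plotted against log compound concentration.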

Compared with `COCc1nc2cc(-c3ccnc4c3cc([C@H](C)N3CCC(c5ccc(C(=O)N6CCC(CN7CCN(c8ccc(NC9CCC(=O)NC9=O)cc8Cl)CC7)CC6)cc5)CC3)n4C)ccc2[nH]1` (stereo partly drawn) [Example 2i4, 3-((3-chloro-4-(4-((1-(4-(1-((S)-1-(4-(2-(methoxymethyl)-1H-benzo[d]imidazol-5-yl)-1-methyl-1H-pyrrolo[2,3-b]pyridin-2-yl)ethyl)piperidin-4-yl)benzoyl)piperidin-4-yl)methyl)piperazin-1-yl)phenyl)amino)piperidine-2,6-dione], `CC(c1cc2c(-c3ccc(N)nc3)ccnc2n1C)N1CCC(c2ccc(C(=O)N3CCC(CN4CCN(c5ccc(NC6CCC(=O)NC6=O)cc5F)CC4)CC3)cc2)CC1` (stereo not shown) [Example 2c10, 3-((4-(4-((1-(4-(1-(1-(4-(6-aminopyridin-3-yl)-1-methyl-1H-pyrrolo[2,3-b]pyridin-2-yl)-ethyl)-piperidin-4-yl)benzoyl)piperidin-4-yl)methyl)piperazin-1-yl)-3-fluorophenyl)amino)piperidine-2,6-dione] is 1.9-fold higher in DC50: 0.0076 µM for the first, 0.0141 µM for the second.

Going from `C[C@@H](c1cc2c(-c3ccc(N)nc3)ccnc2n1C)N1CCC(c2ccc(C(=O)N3CCN(CC4CCN(c5ccc(NC6CCC(=O)NC6=O)cc5F)CC4)CC3)cc2)CC1` (stereo partly drawn) [Example 2g63, 3-((4-(4-((4-(4-(1-((S)-1-(4-(6-aminopyridin-3-yl)-1-methyl-1H-pyrrolo[2,3-b]pyridin-2-yl)ethyl)piperidin-4-yl)benzoyl)piperazin-1-yl)methyl)piperidin-1-yl)-3-fluorophenyl)amino)piperidine-2,6-dione] to `CNc1ccc(-c2ccnc3c2cc([C@H](C)N2CCC(c4ccc(C(=O)N5CCn6nc(CN7CCC(c8ccc(N[C@H]9CCC(=O)NC9=O)cc8F)CC7)cc6C5)cc4)CC2)n3C)cn1` (single isomer, unassigned) [Example 2c42], the DC50 falls from 0.0483 µM to 0.0054 µM (8.9-fold).

Going from `Cn1c(CN2CCC(c3ccc(C(=O)N4CCC(CN5CCN(c6ccc(NC7CCC(=O)NC7=O)cn6)CC5)CC4)cc3)CC2)cc2c(-c3ccc4[nH]ncc4c3)ccnc21` (stereo not shown) [Example 2n1, 3-((6-(4-((1-(4-(1-((4-(1H-indazol-5-yl)-1-methyl-1H-pyrrolo[2,3-b]pyridin-2-yl)methyl)piperidin-4-yl)benzoyl)piperidin-4-yl)methyl)piperazin-1-yl)pyridin-3-yl)amino)piperidine-2,6-dione] to `Cn1c(CN2CCC(c3ccc(C(=O)N4CCC(CN5CCN(c6ncc(NC7CCC(=O)NC7=O)cn6)CC5)CC4)cc3)CC2)cc2c(-c3ccc4[nH]ncc4c3)ccnc21` (stereo not shown) [Example 2k1, 3-((2-(4-((1-(4-(1-((4-(1H-indazol-5-yl)-1-methyl-1H-pyrrolo[2,3-b]pyridin-2-yl)methyl)-piperidin-4-yl)benzoyl)piperidin-4-yl)methyl)piperazin-1-yl)pyrimidin-5-yl)amino)piperidine-2,6-dione], the DC50 rises from 0.0152 µM to 0.0288 µM (1.9-fold).

First: C[C@@H]1CN(c2ccc(NC3CCC(=O)NC3=O)cc2F)CCN1CC1CCN(C(=O)c2ccc(C3CCN(Cc4cc5c(-c6ccc7[nH]ncc7c6)ccnc5n4C)CC3)cc2)CC1 (stereo partly drawn) [Example 2f8, 3-((4-((R)-4-((1-(4-(1-((4-(1H-indazol-5-yl)-1-methyl-1H-pyrrolo[2,3-b]pyridin-2-yl)methyl)-piperidin-4-yl)benzoyl)piperidin-4-yl)methyl)-3-methylpiperazin-1-yl)-3-fluorophenyl)amino)piperidine-2,6-dione]
Second: COCc1nc2cc(-c3ccnc4c3cc(CN3CCC(c5ccc(C(=O)N6CCC(CN7CCC(N8CCC(c9ccc(NC%10CCC(=O)NC%10=O)cc9F)CC8)C(F)(F)C7)CC6)cc5)CC3)n4C)ccc2[nH]1 (stereo not shown) [Example 2h3, 3-((4-(3′, 3′-difluoro-1′-((1-(4-(1-((4-(2-(methoxymethyl)-1H-benzo[d]imidazol-5-yl)-1-methyl-1H-pyrrolo[2,3-b]pyridin-2-yl)methyl)piperidin-4-yl)benzoyl)piperidin-4-yl)methyl)-[1,4′-bipiperidin]-4-yl)-3-fluorophenyl)amino)piperidine-2,6-dione]
The DC50 of the first is 2.9-fold lower: 0.0191 µM for the first, 0.0548 µM for the second.

Same assay, conditions: Emax provided for test compounds with <80% Emax (and 2c15), geometric mean, read-out: STAT6 degradation Emax

First: COCc1nc2cc(-c3ccnc4c3cc(CN3CCC(c5ccc(C(=O)N6CCC(CN7CCN(Cc8ccc(-n9cc(N%10CCC(=O)NC%10=O)nn9)cc8)CC7)CC6)cc5)CC3)n4C)ccc2[nH]1 [Example 2c56, 1-(1-(4-((4-((1-(4-(1-((4-(2-(methoxymethyl)-1H-benzo[d]imidazol-5-yl)-1-methyl-1H-pyrrolo[2,3-b]pyridin-2-yl)methyl)piperidin-4-yl)benzoyl)piperidin-4-yl)methyl)piperazin-1-yl)methyl)-phenyl)-1H-1,2,3-triazol-4-yl) dihydropyrimidine-2,4 (1H,3H)-dione]
Second: COCc1nc2cc(-c3ccnc4c3cc(CN3CCC(c5ccc(C(=O)N6CCC(CN7CCN(c8ccc(NC9CCC(=O)NC9=O)cc8F)C[C@@H]7C)CC6)cc5)CC3)n4C)ccc2[nH]1 (stereo partly drawn) [Example 2f4, 3-((3-fluoro-4-((S)-4-((1-(4-(1-((4-(2-(methoxymethyl)-1H-benzo[d]imidazol-5-yl)-1-methyl-1H-pyrrolo[2,3-b]pyridin-2-yl)methyl)piperidin-4-yl)benzoyl)piperidin-4-yl)methyl)-3-methylpiperazin-1-yl)phenyl)-amino)piperidine-2,6-dione]
The Emax of the first is lower: less than 20% for the first, 50 to 60% for the second.

First: Cn1c(CN2CCC(c3ccc(C(=O)N4CCC(OCC#Cc5cccc(NC6CCC(=O)NC6=O)c5)CC4)cc3)CC2)cc2c(-c3ccc4[nH]ncc4c3)ccnc21 (stereo not shown) [Example 2t5, 3-((3-(3-((1-(4-(1-((4-(1H-indazol-5-yl)-1-methyl-1H-pyrrolo[2,3-b]pyridin-2-yl)methyl)-piperidin-4-yl)benzoyl)piperidin-4-yl)oxy)prop-1-yn-1-yl)phenyl)amino)-piperidine-2,6-dione]
Second: C[C@H]1CN(c2ccc(NC3CCC(=O)NC3=O)cc2F)CCN1CC1CCN(C(=O)c2ccc(C3CCN(Cc4cc5c(-c6ccc7[nH]ncc7c6)ccnc5n4C)CC3)cc2)CC1 (stereo partly drawn) [Example 2f5, 3-((4-((S)-4-((1-(4-(1-((4-(1H-indazol-5-yl)-1-methyl-1H-pyrrolo[2,3-b]pyridin-2-yl)methyl)piperidin-4-yl)benzoyl)piperidin-4-yl)methyl)-3-methylpiperazin-1-yl)-3-fluorophenyl)amino)piperidine-2,6-dione]
The Emax of the first is lower: 30 to 40% for the first, 50 to 60% for the second.

First: C[C@@H](c1cc2c(-c3ccc(N)nc3)ccnc2n1C)N1CCC(c2ccc(C(=O)N3CCC(CN4CCN(c5ccc(NC6CCC(=O)NC6=O)cc5C#N)CC4)CC3)cc2)CC1 (stereo partly drawn) [Example 2i3, 2-(4-((1-(4-(1-((S)-1-(4-(6-aminopyridin-3-yl)-1-methyl-1H-pyrrolo[2,3-b]pyridin-2-yl)-ethyl)-piperidin-4-yl)benzoyl)piperidin-4-yl)methyl)piperazin-1-yl)-5-((2,6-dioxopiperidin-3-yl)amino)-benzonitrile]
Second: Cn1c(CN2CCC(c3ccc(C(=O)N4CCC(CN5CCN(C(=O)c6ccc(NC7CCC(=O)NC7=O)cc6F)CC5)CC4)cc3)CC2)cc2c(-c3ccc(N)nc3)ccnc21 (stereo not shown) [Example 2e2, 3-((4-(4-((1-(4-(1-((4-(6-aminopyridin-3-yl)-1-methyl-1H-pyrrolo[2,3-b]pyridin-2-yl)methyl)-piperidin-4-yl)benzoyl)piperidin-4-yl)methyl)piperazine-1-carbonyl)-3-fluorophenyl)amino)piperidine-2,6-dione]
The Emax of the first is higher: 30 to 40% for the first, less than 20% for the second.

First: Cn1c(CN2CCC(c3ccc(C(=O)N4CCC(CN5CCN(c6ccc(NC7CCC(=O)NC7=O)c(F)c6)CC5)CC4)cc3)CC2)cc2c(-c3ccc4[nH]ncc4c3)ccnc21 (stereo not shown) [Example 2b2, 3-((4-(4-((1-(4-(1-((4-(1H-indazol-5-yl)-1-methyl-1H-pyrrolo[2,3-b]pyridin-2-yl)methyl)piperidin-4-yl)benzoyl)piperidin-4-yl)methyl)piperazin-1-yl)-2-fluorophenyl)amino)piperidine-2,6-dione]
Second: CN(C(=O)c1ccc(C2CCN(Cc3cc4c(-c5ccc6[nH]ncc6c5)ccnc4n3C)CC2)cc1)c1ccc(CC2CCN(c3ccc(NC4CCC(=O)NC4=O)cc3)CC2)cc1 (stereo not shown) [Example 2o2, 4-(1-((4-(1H-indazol-5-yl)-1-methyl-1H-pyrrolo[2,3-b]pyridin-2-yl)methyl)-piperidin-4-yl)-N-(4-((1-(4-((2,6-dioxopiperidin-3-yl)amino)phenyl)piperidin-4-yl)methyl)-phenyl)-N-methylbenzamide]
The Emax of the first is higher: 70 to 80% for the first, 60 to 70% for the second.
